pIC50: −log10 of the molar value. Where a SMILES comes first, the peptide text is derived from it. Bridges are numbered along the chain shown (N, C = ends). [ ]: non-standard residue; d: D form. Oic = O=C(O)[C@@H]1C[C@@H]2CCCC[C@@H]2N1; Pen = CC(C)(S)[C@H](N)C(=O)O
Legend:
[1] = target: Mannan-binding lectin serine protease 2 (Rattus norvegicus, UniProt Q9JJS8); experiment: Biochemical Rat MASP2 Assay
Description: 1 μl of the inhibitor compound solution (dissolved in DMSO, at the corresponding concentration) or pure DMSO as a control was added to the same wells. The enzymatic reaction was initiated by addition of 25 μl of 30 μM solution of the FRET substrate Abz-IEGRTSED-(Lys)Dnp-NH2; (ABZ-2-aminobenzoyl; DNP-2,4-dinitrophenyl; custom synthesis by Jerini Peptide Technologies, Berlin) in the reaction buffer. The microtiter plate was incubated for 60-120 min at the temperature of 32 C. The increase of fluorescence intensity was measured in appropriate fluorescence plate reader (e.g. TECAN Ultra) using excitation wavelength of 320 nm and emission wavelength of 420 nm. IC50 values were calculated from percentage of inhibition of rat […] activity as a function of test compound concentration.

[2] = target: Mannan-binding lectin serine protease 2 (Homo sapiens, UniProt O00187); experiment: Biochemical Human MASP2 Assay
Chain of Mannan-binding lectin serine protease 2 (Homo sapiens, UniProt O00187) (O00187 16-444 limits assumed): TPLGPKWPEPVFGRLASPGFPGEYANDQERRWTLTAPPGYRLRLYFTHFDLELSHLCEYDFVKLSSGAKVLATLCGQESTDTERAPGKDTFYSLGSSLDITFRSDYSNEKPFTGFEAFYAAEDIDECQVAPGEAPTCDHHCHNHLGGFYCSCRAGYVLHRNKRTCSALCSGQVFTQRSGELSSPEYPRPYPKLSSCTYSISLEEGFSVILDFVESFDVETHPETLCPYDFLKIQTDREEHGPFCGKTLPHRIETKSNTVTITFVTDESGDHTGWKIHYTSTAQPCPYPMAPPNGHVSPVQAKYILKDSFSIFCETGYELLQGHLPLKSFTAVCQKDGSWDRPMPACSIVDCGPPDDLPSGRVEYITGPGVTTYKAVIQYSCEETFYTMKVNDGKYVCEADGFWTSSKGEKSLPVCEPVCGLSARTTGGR
Chain of Mannan-binding lectin serine protease 2 (Homo sapiens, UniProt O00187) (O00187 445-686 limits assumed): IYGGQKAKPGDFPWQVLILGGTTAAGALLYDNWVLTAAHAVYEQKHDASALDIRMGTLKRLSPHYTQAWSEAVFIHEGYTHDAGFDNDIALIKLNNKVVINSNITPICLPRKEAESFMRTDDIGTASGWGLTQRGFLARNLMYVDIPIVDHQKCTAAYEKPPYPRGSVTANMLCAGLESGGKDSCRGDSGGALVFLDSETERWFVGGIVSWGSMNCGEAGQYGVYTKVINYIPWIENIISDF
Description: Recombinant human MASP2 enzyme produced in the HEK 293 cells was diluted in the reaction buffer (50 mM HEPES pH 8,0; 100 mM NaCl; 0,01% CHAPS; 0.5 mM Gluthathione) to the concentration of 20 nM and 25 μl was transferred into each single well of 384-well white microtiter plate (Greiner Bio One 781075). 1 μl of the inhibitor compound solution (dissolved in DMSO, at the corresponding concentration) or pure DMSO as a control was added to the same wells. The enzymatic reaction was initiated by addition of 25 μl of 60 μM solution of the FRET substrate DABCYL-[…]-Glu(EDANS) NH2; (Dabcyl-4-((4-(dimethylamino)phenyl)azo)benzoic acid; Edans-5-[(2-Aminoethyl) amino]naphthalene-1-sulfonyl; custom synthesis by Jerini Peptide Technologies, Berlin) in the reaction buffer. The microtiter plate was incubated for 60-120 min at the temperature of 32 C.

[3] = target: T1, Mannan-binding lectin serine protease 1 (Homo sapiens, UniProt P48740); experiment: Biochemical Human MASP1 Assay
T1 sequence (P48740 whole entry): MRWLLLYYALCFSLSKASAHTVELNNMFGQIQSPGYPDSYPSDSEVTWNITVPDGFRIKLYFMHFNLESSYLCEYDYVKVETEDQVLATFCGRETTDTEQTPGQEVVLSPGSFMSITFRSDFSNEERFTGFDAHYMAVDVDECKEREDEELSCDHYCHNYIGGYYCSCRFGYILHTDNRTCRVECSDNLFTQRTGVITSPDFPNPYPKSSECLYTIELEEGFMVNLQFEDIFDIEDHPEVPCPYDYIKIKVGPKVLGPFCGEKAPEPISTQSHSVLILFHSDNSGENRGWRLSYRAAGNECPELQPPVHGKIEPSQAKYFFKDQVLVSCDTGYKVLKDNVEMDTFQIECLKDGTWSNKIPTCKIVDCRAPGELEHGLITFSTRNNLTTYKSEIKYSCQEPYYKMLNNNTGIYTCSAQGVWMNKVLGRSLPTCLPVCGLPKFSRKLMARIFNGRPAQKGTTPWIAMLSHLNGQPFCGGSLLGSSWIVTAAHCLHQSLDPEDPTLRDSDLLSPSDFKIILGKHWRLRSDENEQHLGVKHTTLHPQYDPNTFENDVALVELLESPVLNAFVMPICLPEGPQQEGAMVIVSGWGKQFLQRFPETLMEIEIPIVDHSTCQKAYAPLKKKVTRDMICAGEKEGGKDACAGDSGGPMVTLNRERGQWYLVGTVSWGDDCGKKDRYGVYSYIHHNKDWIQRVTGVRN
Description: Recombinant human MASP1 enzyme produced in the HEK 293 cells was diluted in the reaction buffer (50 mM HEPES pH 8,0; 100 mM NaCl; 0,01% CHAPS; 0.5 mM Gluthathione) to the concentration of 20 nM and 25 μl was transferred into each single well of 384-well white microtiter plate (Greiner Bio One 781075). 1 μl of the inhibitor compound solution (dissolved in DMSO, at the corresponding concentration) or pure DMSO as a control was added to the same wells. The enzymatic reaction was initiated by addition of 25 μl of 20 μM solution of the FRET substrate ABZ-[…]-Lys (Dnp)-NH2; (ABZ-2-aminobenzoyl; DNP 2,4-dinitrophenyl; custom synthesis by Jerini Peptide Technologies, Berlin) in the reaction buffer. The microtiter plate was incubated for 60-120 min at the temperature of 32 C. The increase of fluorescence intensity was measured in appropriate fluorescence plate reader (e.g. TECAN Ultra) using excitation wavelength of 320 nm and emission wavelength of 420 nm. IC50 values were calculated from percentage of inhibition of human MASP1 activity as a function of test compound concentration.

[4] = target: T2, Mannan-binding lectin serine protease 1 (Rattus norvegicus, UniProt Q8CHN8); experiment: Biochemical Rat MASP1 Assay
T2 sequence (Q8CHN8 whole entry): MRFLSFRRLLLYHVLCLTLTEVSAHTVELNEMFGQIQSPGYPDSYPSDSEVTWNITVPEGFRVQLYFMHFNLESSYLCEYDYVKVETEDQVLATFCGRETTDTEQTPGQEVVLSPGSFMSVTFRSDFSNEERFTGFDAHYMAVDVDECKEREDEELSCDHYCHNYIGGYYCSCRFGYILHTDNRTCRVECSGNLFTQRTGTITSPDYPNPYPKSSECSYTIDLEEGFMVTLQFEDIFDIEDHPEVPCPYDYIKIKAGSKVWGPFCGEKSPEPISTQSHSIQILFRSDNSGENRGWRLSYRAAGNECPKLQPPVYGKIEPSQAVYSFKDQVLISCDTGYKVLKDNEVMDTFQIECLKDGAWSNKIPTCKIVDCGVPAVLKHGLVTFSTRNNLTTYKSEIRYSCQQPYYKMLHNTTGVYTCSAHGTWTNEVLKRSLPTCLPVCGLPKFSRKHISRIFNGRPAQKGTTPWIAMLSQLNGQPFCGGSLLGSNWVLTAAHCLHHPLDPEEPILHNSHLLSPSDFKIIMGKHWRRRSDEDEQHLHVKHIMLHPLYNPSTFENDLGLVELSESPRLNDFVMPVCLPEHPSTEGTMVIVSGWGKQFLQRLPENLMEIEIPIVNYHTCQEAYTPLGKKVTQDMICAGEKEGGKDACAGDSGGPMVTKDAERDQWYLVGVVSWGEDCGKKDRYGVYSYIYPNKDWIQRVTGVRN
Description: Recombinant […] produced in the HEK 293 cells was diluted in the reaction buffer (50 mM HEPES pH 8,0; 100 mM NaCl; 0,01% CHAPS; 0.5 mM Gluthathione) to the concentration of 4 nM and 25 μl was transferred into each single well of 384-well white microtiter plate (Greiner Bio One 781075). 1 μl of the inhibitor compound solution (dissolved in DMSO, at the corresponding concentration) or pure DMSO as a control was added to the same wells. The enzymatic reaction was initiated by addition of 25 μl of 40 μM solution of the FRET substrate Dabcyl-[…]-Glu(Edans)-NH2; (Dabcyl-4-((4-(dimethylamino)phenyl)azo)benzoic acid; Edans-5-[(2-Aminoethyl) amino]naphthalene-1-sulfonyl; custom synthesis by Jerini Peptide Technologies, Berlin) in the reaction buffer. The microtiter plate was incubated for 60-120 min at the temperature of 32 C. The increase of fluorescence intensity was measured in appropriate fluorescence plate reader (e.g. TECAN Ultra) using excitation wavelength of 340 nm and emission wavelength of 490 nm. IC50 values were calculated from percentage of inhibition of rat […] activity as a function of test compound concentration.

Chain of Mannan-binding lectin serine protease 2 (Rattus norvegicus, UniProt Q9JJS8) (Q9JJS8 20-443 limits assumed): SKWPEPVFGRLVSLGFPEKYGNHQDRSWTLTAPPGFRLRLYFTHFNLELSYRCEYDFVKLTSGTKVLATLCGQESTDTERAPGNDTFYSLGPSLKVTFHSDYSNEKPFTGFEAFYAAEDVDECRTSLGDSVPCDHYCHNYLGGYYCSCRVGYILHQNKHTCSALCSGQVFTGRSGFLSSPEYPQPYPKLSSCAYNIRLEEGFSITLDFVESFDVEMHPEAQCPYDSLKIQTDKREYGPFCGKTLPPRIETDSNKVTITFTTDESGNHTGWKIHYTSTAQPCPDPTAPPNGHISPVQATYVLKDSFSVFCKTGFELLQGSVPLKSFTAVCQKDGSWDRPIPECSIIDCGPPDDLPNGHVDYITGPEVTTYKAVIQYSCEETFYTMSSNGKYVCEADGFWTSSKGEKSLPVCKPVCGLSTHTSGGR
Chain of Mannan-binding lectin serine protease 2 (Rattus norvegicus, UniProt Q9JJS8) (Q9JJS8 444-685 limits assumed): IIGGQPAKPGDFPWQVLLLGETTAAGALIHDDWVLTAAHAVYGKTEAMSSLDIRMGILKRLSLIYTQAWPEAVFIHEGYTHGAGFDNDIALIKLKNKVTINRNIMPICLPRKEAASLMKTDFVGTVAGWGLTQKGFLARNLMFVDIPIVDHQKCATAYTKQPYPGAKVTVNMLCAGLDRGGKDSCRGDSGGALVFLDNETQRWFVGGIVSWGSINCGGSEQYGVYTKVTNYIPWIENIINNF

SMILES	pIC50 [1]	pIC50 [2]	pIC50 [3]	pIC50 [4]
CC[C@H](C)[C@@H]1NC(=O)CNC(=O)CNC(=O)[C@H](C)NC(=O)[C@H](CC(=O)O)NC(=O)[C@@H]2CCCN2C(=O)[C@H]([C@@H](C)CC)NC(=O)[C@H]2NC(=O)[C@H]([C@@H](C)CC)NC(=O)[C@@H]3C[C@@H]4CCCC[C@@H]4N3C(=O)[C@@H]3CCCN3C(=O)[C@H](CC(C)C)NC(=O)[C@H](CO)NC(=O)[C@H](CCCNC(=N)N)NC(=O)[C@H](CO)NC(=O)[C@H](CSSC2(C)C)NC1=O [US20240010684, Ex. No 92] (cyclo(AGGICSRSLP[Oic]I[Pen]IPD); disulfide 5-13)	7.39	7.11	8.08	6.77
CC[C@H](C)[C@@H]1NC(=O)CNC(=O)CNC(=O)[C@H](C)NC(=O)[C@@H](CC(=O)O)NC(=O)[C@@H]2CCCN2C(=O)[C@H]([C@@H](C)CC)NC(=O)[C@H]2NC(=O)[C@H]([C@@H](C)CC)NC(=O)[C@@H]3C[C@@H]4CCCC[C@@H]4N3C(=O)[C@@H]3CCCN3C(=O)[C@H](CC(C)C)NC(=O)[C@H](CO)NC(=O)[C@H](CCCNC(=N)N)NC(=O)[C@H](CO)NC(=O)[C@H](CSSC2(C)C)NC1=O [US20240010684, Ex. No 98] (cyclo(AGGICSRSLP[Oic]I[Pen]IP[dD]); disulfide 5-13)		6.80	7.72	6.77
CC[C@H](C)[C@@H]1NC(=O)[C@@H]2CCCN2C(=O)[C@@H]2CCCN2C(=O)[C@H]([C@@H](C)CC)NC(=O)[C@H](CO)NC(=O)[C@H](CCCCN)NC(=O)[C@H]([C@@H](C)O)NC(=O)[C@@H]2CSSC[C@H](NC1=O)C(=O)N[C@@H](Cc1ccccc1)C(=O)N1CCC[C@H]1C(=O)N[C@@H](CC(=O)O)C(=O)NCC(=O)N[C@@H](CCCNC(=N)N)C(=O)N2 [US20240010684, Ref. No 2]	6.00	< 5.52	< 5.52	

— BindingDB's records for patent US20240010684 (Bayer Aktiengesellschaft, 2024)
